Measured values published in PMC4869123 (Scientific Reports, 2016).
Where two headings read alike, the source gives them in different places. *1 amine or outer side, *2 acyl side, *3 side chain or, on linkers, in order; H or OH if unused. Where a SMILES comes first, the peptide text is derived from it. Bridges are numbered along the chain shown (N, C = ends). Roman numbers before positions name the chains, in order. Where no end group is shown, it is not given here. [ ]: non-standard residue; d: D form. X1 = O=C(CCOCCOCCOCCOCCOCCOCCOCCOCCOCCOCCOCCOCCOCCOCCOCCOCCOCCOCCOCCOCCOCCC(=O)[*:2])[*:1]; CO(CH2CH2O)5CH2CH2CO = O=C(CCOCCOCCOCCOCCOCCC(=O)[*:2])[*:1]; Lys(Me2) = CN(C)CCCC[C@H](N)C(=O)O

Legend:
[1] = molecular target: T1, human IL-17A (Homo sapiens, UniProt Q16552); assay: BJ human fibroblast cell assay, IL-17A stimulated GRO-α production; assay type: cell-based; conditions: BJ human fibroblast cells, 1 ng/ml human IL-17A
T1 construct: host or cells: added to BJ human fibroblasts (ATCC CRL2522)
Text: For inhibitor screen, human BJ fibroblast cells (ATCC CRL2522) (American Type Culture Collection, VA) were used. For mouse cell based assay MLE-12 mouse epithelial cells (ATCC CRL2110) were used. Both cell lines were maintained in ATCC recommended media.

[2] = molecular target: T2, murine IL-17A (Mus musculus, UniProt Q62386); assay: Murine functional cell assay, MLE-12 mouse epithelial cells, KC production; assay type: cell-based
T2 construct: host or cells: added to MLE-12 mouse epithelial cells (ATCC CRL2110)
T2 sequence (Q62386 26-158): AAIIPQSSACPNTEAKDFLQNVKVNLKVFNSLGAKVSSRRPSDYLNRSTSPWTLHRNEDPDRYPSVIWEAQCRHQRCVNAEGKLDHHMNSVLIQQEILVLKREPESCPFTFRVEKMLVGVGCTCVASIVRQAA
Procedure: […]. For inhibitor screen, human BJ fibroblast cells (ATCC CRL2522) (American Type Culture Collection, VA) were used. For mouse cell based assay MLE-12 mouse epithelial cells (ATCC CRL2110) were used. Both cell lines were maintained in ATCC recommended media. Cells were seeded at 5 × 10^3 cells/well into 96-well flat-bottom microtiter plates in which peptides that had been pre-diluted with cytokines (1 ng/mL for human IL-17A or 15 ng/mL for mouse IL-17A) in culture medium. Cells were incubated at 37 °C for 16–24 hrs, and supernatants were collected and analyzed by ELISA for either human CXCL1/GRO-α (R&D Systems DY275) or mouse CXCL1/KC (R&D Systems DY453).
Figure S4. Inhibition of IL-17A induced murine keratinocyte-derived cytokine (KC). MLE-12 mouse epithelial cellswere cultured in the presence of IL-17A […]
which time cell culture were removed for analysis of KCproduction.Data are mean and error bars of +/-standard deviation of duplicatedmeasurements […]
(1 picture or pasted object on this page, not shown here)

[3] = molecular target: T3, human IL-17A (human, UniProt Q16552 24-155)
[4] = molecular target: T4, biotinylated recombinant human IL-17A (rhIL-17, R&D Systems #317-ILB) (human, UniProt Q16552 24-155, biotinylated); conditions: both partners purified
T4 construct: IL-17A, human, recombinant; also called Biotinylated IL-17A; source: bought: R&D Systems

[5] = molecular target: T3, human IL-17A; assay: cell-based or functional assay
[6] = molecular target: T5, biotinylated mouse IL-17A (mouse, UniProt Q62386 26-158, biotinylated); assay: SPR; Biacore 3000; biotinylated protein captured on a streptavidin chip (about 2500 to 3500 RUs); peptide injected at 50 μl/min, 180 s association, at least 600 s dissociation; 10 mM HEPES pH 7.4, 150 mM NaCl, 0.01% P20, 3% DMSO; single site model, global fit; conditions: both partners purified
T5 construct: IL-17A, mouse; also called mIL-17A; murine IL-17A; source: bought: Cell Signaling
T5 sequence (looked up): T2 sequence (Q62386 26-158)

[7] = molecular target: T5, biotinylated mouse IL-17A; assay: cell-based or functional assay

T1 sequence (Q16552 24-155): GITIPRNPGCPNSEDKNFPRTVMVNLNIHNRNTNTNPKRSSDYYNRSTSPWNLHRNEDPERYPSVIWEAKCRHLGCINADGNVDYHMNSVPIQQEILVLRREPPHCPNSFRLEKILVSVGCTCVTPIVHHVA
T3 sequence (Q16552 24-155): as above
T4 sequence (Q16552 24-155): as above

## CC[C@H](C)[C@H](NC(=O)CCOCCOCCOCCOCCOCCOCCOCCOCCOCCOCCOCCOCCOCCOCCOCCOCCOCCOCCOCCOCCOCCC(=O)N[C@H](C(=O)N[C@H](C(=O)N[C@H](C(=O)N[C@H](C(=O)N[C@H](C(=O)N1CCC[C@H]1C(=O)N[C@@H](C)C(=O)N[C@@H](CC(=O)O)C(=O)N[C@@H](CC(C)C)C(=O)N[C@@H](Cc1c[nH]c2ccccc12)C(=O)N[C@@H](CC(=O)O)C(=O)N[C@@H](Cc1c[nH]c2ccccc12)C(=O)N[C@H](C(=O)N[C@@H](CC(N)=O)C(=O)N[C@@H](CCCCN(C)C)C(N)=O)[C@@H](C)CC)[C@@H](C)CC)[C@@H](C)O)C(C)C)[C@@H](C)O)[C@@H](C)CC)C(=O)N[C@H](C(=O)N[C@H](C(=O)N[C@H](C(=O)N[C@H](C(=O)N1CCC[C@H]1C(=O)N[C@@H](C)C(=O)N[C@@H](CC(=O)O)C(=O)N[C@@H](CC(C)C)C(=O)N[C@@H](Cc1c[nH]c2ccccc12)C(=O)N[C@@H](CC(=O)O)C(=O)N[C@@H](Cc1c[nH]c2ccccc12)C(=O)N[C@H](C(=O)N[C@@H](CC(N)=O)C(=O)N[C@@H](CCCCN(C)C)C(N)=O)[C@@H](C)CC)[C@@H](C)CC)[C@@H](C)O)C(C)C)[C@@H](C)O [Compound 39] (I: ITVTIPADLWDWIN[Lys(Me2)]-NH2 / II: ITVTIPADLWDWIN[Lys(Me2)]-NH2; linker I:N-II:N via X1)
[1]
  IC50: 0.74 nM

## CC[C@H](C)[C@H](NC(C)=O)C(=O)N[C@H](C(=O)N[C@H](C(=O)N[C@H](C(=O)N[C@H](C(=O)N1CCC[C@H]1C(=O)N[C@@H](C)C(=O)N[C@@H](CC(=O)O)C(=O)N[C@@H](CC(C)C)C(=O)N[C@@H](Cc1c[nH]c2ccccc12)C(=O)N[C@@H](CC(=O)O)C(=O)N[C@@H](Cc1c[nH]c2ccccc12)C(=O)N[C@H](C(=O)N[C@@H](CC(N)=O)C(=O)N[C@@H](CCCCN(C)C)C(=O)N[C@@H](CCCCNC(=O)CCOCCOCCOCCOCCOCCC(=O)NCCCC[C@H](NC(=O)[C@H](CCCCN(C)C)NC(=O)[C@H](CC(N)=O)NC(=O)[C@@H](NC(=O)[C@H](Cc1c[nH]c2ccccc12)NC(=O)[C@H](CC(=O)O)NC(=O)[C@H](Cc1c[nH]c2ccccc12)NC(=O)[C@H](CC(C)C)NC(=O)[C@H](CC(=O)O)NC(=O)[C@H](C)NC(=O)[C@@H]1CCCN1C(=O)[C@@H](NC(=O)[C@@H](NC(=O)[C@@H](NC(=O)[C@@H](NC(=O)[C@@H](NC(C)=O)[C@@H](C)CC)[C@@H](C)O)C(C)C)[C@@H](C)O)[C@@H](C)CC)[C@@H](C)CC)C(N)=O)C(N)=O)[C@@H](C)CC)[C@@H](C)CC)[C@@H](C)O)C(C)C)[C@@H](C)O [Compound 46] (I: Ac-ITVTIPADLWDWIN[Lys(Me2)]K-NH2 / II: Ac-ITVTIPADLWDWIN[Lys(Me2)]K-NH2; linker I:16-II:16 via CO(CH2CH2O)5CH2CH2CO)
[1]
  IC50: 582 nM

## Ac-IHVTIPADLWDWI-NH2 [Compound 36]
[1]
  IC50: 183 nM

## CC[C@H](C)[C@H](NC(C)=O)C(=O)N[C@H](C(=O)N[C@H](C(=O)N[C@H](C(=O)N[C@H](C(=O)N1CCC[C@H]1C(=O)N[C@@H](C)C(=O)N[C@@H](CC(=O)O)C(=O)N[C@@H](CC(C)C)C(=O)N[C@@H](Cc1c[nH]c2ccccc12)C(=O)N[C@@H](CC(=O)O)C(=O)N[C@@H](Cc1c[nH]c2ccccc12)C(=O)N[C@H](C(=O)N[C@@H](CCCCNC(=O)CCOCCOCCOCCOCCOCCOCCOCCOCCOCCOCCOCCOCCOCCOCCOCCOCCOCCOCCOCCOCCOCCC(=O)NCCCC[C@H](NC(=O)[C@@H](NC(=O)[C@H](Cc1c[nH]c2ccccc12)NC(=O)[C@H](CC(=O)O)NC(=O)[C@H](Cc1c[nH]c2ccccc12)NC(=O)[C@H](CC(C)C)NC(=O)[C@H](CC(=O)O)NC(=O)[C@H](C)NC(=O)[C@@H]1CCCN1C(=O)[C@@H](NC(=O)[C@@H](NC(=O)[C@@H](NC(=O)[C@@H](NC(=O)[C@@H](NC(C)=O)[C@@H](C)CC)[C@@H](C)O)C(C)C)[C@@H](C)O)[C@@H](C)CC)[C@@H](C)CC)C(=O)N[C@@H](CCCCN(C)C)C(N)=O)C(=O)N[C@@H](CCCCN(C)C)C(N)=O)[C@@H](C)CC)[C@@H](C)CC)[C@@H](C)O)C(C)C)[C@@H](C)O [Compound 45] (I: Ac-ITVTIPADLWDWIK[Lys(Me2)]-NH2 / II: Ac-ITVTIPADLWDWIK[Lys(Me2)]-NH2; linker I:14-II:14 via X1)
[1]
  IC50: 0.1 nM
[2]; MLE-12 cells, 15 ng/ml murine IL-17A, KC production, read-out: IC50, murine IL-17A
  IC50: 41 nM

## Ac-TIPADLWDWINK-NH2 [Compound 34]
[1]
  IC50: > 1000 nM

## CC[C@H](C)[C@H](NC(C)=O)C(=O)N[C@H](C(=O)N[C@H](C(=O)N[C@H](C(=O)N[C@H](C(=O)N1CCC[C@H]1C(=O)N[C@@H](C)C(=O)N[C@@H](CC(=O)O)C(=O)N[C@@H](CC(C)C)C(=O)N[C@@H](Cc1c[nH]c2ccccc12)C(=O)N[C@@H](CC(=O)O)C(=O)N[C@@H](Cc1c[nH]c2ccccc12)C(=O)N[C@H](C(=O)N[C@@H](CC(N)=O)C(=O)N[C@@H](CCCCN(C)C)C(=O)N[C@@H](CCCCNC(=O)CCOCCOCCOCCOCCOCCOCCOCCOCCOCCOCCOCCOCCOCCOCCOCCOCCOCCOCCOCCOCCOCCC(=O)NCCCC[C@H](NC(=O)[C@H](CCCCN(C)C)NC(=O)[C@H](CC(N)=O)NC(=O)[C@@H](NC(=O)[C@H](Cc1c[nH]c2ccccc12)NC(=O)[C@H](CC(=O)O)NC(=O)[C@H](Cc1c[nH]c2ccccc12)NC(=O)[C@H](CC(C)C)NC(=O)[C@H](CC(=O)O)NC(=O)[C@H](C)NC(=O)[C@@H]1CCCN1C(=O)[C@@H](NC(=O)[C@@H](NC(=O)[C@@H](NC(=O)[C@@H](NC(=O)[C@@H](NC(C)=O)[C@@H](C)CC)[C@@H](C)O)C(C)C)[C@@H](C)O)[C@@H](C)CC)[C@@H](C)CC)C(N)=O)C(N)=O)[C@@H](C)CC)[C@@H](C)CC)[C@@H](C)O)C(C)C)[C@@H](C)O [Compound 47] (I: Ac-ITVTIPADLWDWIN[Lys(Me2)]K-NH2 / II: Ac-ITVTIPADLWDWIN[Lys(Me2)]K-NH2; linker I:16-II:16 via X1)
[1]
  IC50: 16 nM

## Ac-IHVTIPADLWDWINK-NH2 [Compound 30]
[2]
  IC50: > 1000 nM

## Ac-IHVTIPADLWDWI (not fully specified (C-terminus)) [peptide 36]
[3]
  Cell IC50: inhibition of IL-17A signaling in BJ human fibroblast cells stimulated with 1 ng/ml IL-17A: 183 nM

B1: peptide 1 (peptide)
peptide: Ac-IVVTMPADLWDWIKA
modifications: not fully specified (C-terminus)
notes: 15-mer linear peptide from phage display; made on Rink resin; a C-terminal amide is surmised; also called phage peptide 1; source: synthetic peptide
[4]
  IC50: 80 nM
[5]
  Cell IC50: inhibition of GRO-α production in BJ human fibroblast cells stimulated with 1 ng/ml IL-17A: 370 nM

B2: peptide 24 (peptide)
peptide: Ac-IVVTIPADLWDWIRA
modifications: not fully specified (C-terminus)
notes: analogue of peptide 2, I at position 5; made on Rink resin; a C-terminal amide is surmised; source: synthetic peptide
[4]
  IC50: 3 nM
[5]
  Cell IC50: inhibition of GRO-α production in BJ human fibroblast cells stimulated with 1 ng/ml IL-17A: 18 nM

B3: high affinity IL-17A peptide antagonist (HAP) (peptide)
peptide: Ac-IHVTIPADLWDWINK
notes: 15-residue peptide that combines the key residues found by SAR; made on Rink resin; a C-terminal amide is surmised; also called 30; peptide 30; source: synthetic peptide
[6]
  Kd: 30.1 ± 0.1 nM
[7]
  IC50 in a murine functional cell assay using 15 ng/ml murine IL-17A (inhibition of murine IL-17A signaling): > 1000 nM
